Source: ChEMBL document CHEMBL3745676, “Alkylamino derivatives of N-benzylpyrazine-2-carboxamide: synthesis and antimycobacterial evaluation” (Medchemcomm, 2015)
≈ marks a conversion by molar mass, not a printed value.

Legend:
[1] = Cytotoxicity against CRFK cells assessed as cell viability after 4 to 6 days by formazan-based MTS assay; parameters: species or system Felis catus; settings: cat
Pichia kudriavzevii = test: Antifungal activity against Candida krusei E28 after 24 to 48 hrs by broth microdilution method; assay type: functional
Mycobacterium kansasii = test: Antimycobacterial activity against Mycobacterium kansasii CNCTC My 235/80 incubated for 5 to 7 days by microplate alamar blue assay; assay type: functional
[2] = tested on: Mycobacterium tuberculosis; test: Antimycobacterial activity against Mycobacterium tuberculosis H37Rv CNCTC My 331/88 incubated for 10 to 14 days by microplate alamar blue assay; assay type: functional
Aspergillus fumigatus = test: Antifungal activity against Aspergillus fumigatus 231 after 24 to 48 hrs by broth microdilution method; assay type: functional
Mycobacterium avium [3] = test: Antimycobacterial activity against Mycobacterium avium CNCTC My 152/73 after 5 days by microplate alamar blue assay; assay type: functional; settings: CNCTC My 152/73, 120 h
Nakaseomyces glabratus = test: Antifungal activity against Candida glabrata 20/I after 24 to 48 hrs by broth microdilution method; assay type: functional
Klebsiella pneumoniae [4] = test: Antibacterial activity against Klebsiella pneumoniae D 11750/08 after 24 to 48 hrs by broth microdilution method; assay type: functional
Influenza A virus [5] = test: Antiviral activity against Influenza A virus (A/Puerto Rico/8/(H1N1)) assessed as inhibition of virus-induced cytopathic effect after 3 to 6 days by formazan-based MTS assay; assay type: functional, organism-based
Candida tropicalis = test: Antifungal activity against Candida tropicalis 156 after 24 to 48 hrs by broth microdilution method; assay type: functional
Trichosporon asahii = test: Antifungal activity against Trichosporon asahii 1188 after 24 to 48 hrs by broth microdilution method; assay type: functional
[6] = Cytotoxicity against HEL cells assessed as cell viability after 4 to 6 days by microscopic analysis; assay type: cell-based; settings: human
Pseudomonas aeruginosa = test: Antibacterial activity against Pseudomonas aeruginosa CCM 1961 after 24 to 48 hrs by broth microdilution method; assay type: functional
Escherichia coli = test: Antibacterial activity against Escherichia coli CCM 4517 after 24 to 48 hrs by broth microdilution method; assay type: functional
Mycobacterium avium [7] = test: Antimycobacterial activity against Mycobacterium avium CNCTC My 80/72 after 5 days by microplate alamar blue assay; assay type: functional; settings: CNCTC My 80/72, 120 h
[8] = Cytotoxicity against human HeLa cells assessed as cell viability after 4 to 6 days by microscopic analysis; assay type: cell-based
[9] = Lipophilicity, logK of the compound by RP-HPLC analysis; assay type: physicochemical
Klebsiella pneumoniae [10] = test: Antibacterial activity against ESBL positive Klebsiella pneumoniae J 14368/08 after 24 to 48 hrs by broth microdilution method; assay type: functional
[11] = Cytotoxicity against African green monkey Vero cells assessed as cell viability after 4 to 6 days by microscopic analysis; assay type: cell-based; settings: chlorocebus sabaeus
Lichtheimia corymbifera = test: Antifungal activity against Lichtheimia corymbifera 272 after 24 to 48 hrs by broth microdilution method; assay type: functional
[12] = tested on: Trichophyton mentagrophytes; test: Antifungal activity against Trichophyton mentagrophytes 445 after 72 to 120 hrs by broth microdilution method; assay type: functional
[13] = Cytotoxicity against MDCK cells assessed as cell viability after 4 to 6 days by formazan-based MTS assay; parameters: species or system Canis lupus familiaris; settings: dog
Influenza A virus [14] = test: Antiviral activity against Influenza A virus (A/Puerto Rico/8/(H1N1)) assessed as inhibition of virus-induced cytopathic effect after 3 to 6 days by microscopic analysis; assay type: functional, organism-based
Candida albicans = test: Antifungal activity against Candida albicans ATCC 44859 after 24 to 48 hrs by broth microdilution method; assay type: functional
[15] = Cytotoxicity against MDCK cells assessed as cell viability after 4 to 6 days by microscopic analysis; assay type: cell-based, Canis lupus familiaris; settings: dog
[16] = tested on: Mycobacterium tuberculosis; test: Potency index, ratio of pyrazinamide MIC to compound MIC for Mycobacterium tuberculosis H37Rv CNCTC My 331/88; assay type: functional

Structure (SMILES) | CC50 [1] | MIC (Pichia kudriavzevii) | MIC (Mycobacterium kansasii) | MIC [2] | MIC (Aspergillus fumigatus) | MIC (Mycobacterium avium [3]) | MIC (Nakaseomyces glabratus) | MIC95 (Klebsiella pneumoniae [4]) | EC50 (Influenza A virus [5]) | MIC (Candida tropicalis) | MIC (Trichosporon asahii) | MCC [6] | MIC95 (Pseudomonas aeruginosa) | MIC95 (Escherichia coli) | MIC (Mycobacterium avium [7]) | MCC [8] | log K [9] | MIC95 (Klebsiella pneumoniae [10]) | MCC [11] | MIC (Lichtheimia corymbifera) | also measured
CCCCCCCNc1nccnc1C(=O)NCc1ccccc1 | > 100 µM | > 500 µM | > 100 µg/mL | > 100 µg/mL | > 500 µM | > 100 µg/mL | > 500 µM | > 500 µM | > 100 µM | > 500 µM | > 500 µM | 100 µM | > 500 µM | > 500 µM | > 100 µg/mL | > 100 µM | 1.809 | > 500 µM | > 100 µM | > 500 µM | MIC [12]: > 500 µM; CC50 [13]: > 100 µM; EC50 (Influenza A virus [14]): > 100 µM; MIC (Candida albicans): > 500 µM; MCC [15]: 100 µM
CCCCCCCNc1cnc(C(=O)NCc2ccccc2)cn1 | > 100 µM | > 500 µM | > 100 µg/mL | 10 µM | > 500 µM | > 100 µg/mL | > 500 µM | > 500 µM | 47 µM | > 500 µM | > 500 µM | > 100 µM | > 500 µM | > 500 µM | > 100 µg/mL | > 100 µM | 1.089 | > 500 µM | ≥ 100 µM | > 500 µM | Ratio [16]: <=20; MIC [12]: > 500 µM; CC50 [13]: > 100 µM; EC50 (Influenza A virus [14]): 21 µM; MIC (Candida albicans): > 500 µM; MCC [15]: > 100 µM
CCCCNc1nccnc1C(=O)NCc1ccccc1 | > 100 µM | > 500 µM | > 100 µg/mL | > 100 µg/mL | > 500 µM | > 100 µg/mL | > 500 µM | > 500 µM | > 100 µM | > 500 µM | > 500 µM | > 100 µM | > 500 µM | > 500 µM | > 100 µg/mL | > 100 µM | 1.081 | > 500 µM | > 100 µM | > 500 µM | MIC [12]: > 500 µM; CC50 [13]: > 100 µM; EC50 (Influenza A virus [14]): > 100 µM; MIC (Candida albicans): > 500 µM; MCC [15]: > 100 µM
CCCCCNc1cnc(C(=O)NCc2ccccc2)cn1 | > 100 µM | > 500 µM | > 100 µg/mL | 21 µM | > 500 µM | > 100 µg/mL | > 500 µM | > 500 µM | 3.3 µM | > 500 µM | > 500 µM | > 100 µM | > 500 µM | > 500 µM | > 100 µg/mL | > 100 µM | 0.638 | > 500 µM | > 100 µM | > 500 µM | MIC [12]: > 500 µM; CC50 [13]: > 100 µM; EC50 (Influenza A virus [14]): 37 µM; MIC (Candida albicans): > 500 µM; MCC [15]: > 100 µM
CCCCCCCCNc1nccnc1C(=O)NCc1ccccc1 | > 100 µM | > 500 µM | > 100 µg/mL | > 100 µg/mL | > 500 µM | > 100 µg/mL | > 500 µM | > 500 µM | > 100 µM | > 500 µM | > 500 µM | > 100 µM | > 500 µM | > 500 µM | > 100 µg/mL | > 100 µM | 2.054 | > 500 µM | > 100 µM | > 500 µM | MIC [12]: > 500 µM; CC50 [13]: > 100 µM; EC50 (Influenza A virus [14]): > 100 µM; MIC (Candida albicans): > 500 µM; MCC [15]: 100 µM
CCCCNc1cnc(C(=O)NCc2ccccc2)cn1 | > 100 µM | > 500 µM | > 100 µg/mL | 88 µM | > 500 µM | > 100 µg/mL | > 500 µM | > 500 µM | > 100 µM | > 500 µM | > 500 µM | > 100 µM | > 500 µM | > 500 µM | > 100 µg/mL | > 100 µM | 0.424 | > 500 µM | > 100 µM | > 500 µM | MIC [12]: > 500 µM; CC50 [13]: 57 µM; EC50 (Influenza A virus [14]): > 100 µM; MIC (Candida albicans): > 500 µM; MCC [15]: 100 µM
O=C(NCc1ccccc1)c1nccnc1Cl |  |  | 100 µg/mL (≈ 404 µM) | 50 µM |  | > 100 µg/mL |  |  |  |  |  |  |  |  | > 100 µg/mL |  |  |  |  |  | 
